Data on 2 compounds can be found in paper PMC2838427 (British journal of haematology, 2009).

Where “and” joins values, the source holds several entries; their conditions need not be identical. Equal values may be shown once.

The conditions of data set [1]: patients with chronic myelogenous leukemia; ref Picard, et al 2007; cited from earlier work.
Data set [2] deals with fetal hemoglobin (HbF). The data set is described as follows: Blood fetal hemoglobin. In kind it is in vivo, patients.
Data set [3] has as its system histone H3 acetylation in peripheral blood mononuclear cells (PBMCs). The following applies: human, in vivo.
For data set [4], the system named is ABCB1 gene expression in PBMCs. The following applies: human, in vivo.
The subject of data set [5] is ABCB1 gene expression in tumor biopsy samples. The following applies: in vivo.

As for `Cc1ccc(NC(=O)c2ccc(CN3CCN(C)CC3)cc2)cc1Nc1nccc(-c2cccnc2)n1` [imatinib], the “trough plasma threshold associated with response” value in data set [1] was 1002 ng/mL.

Turning to `C/C=C1\NC(=O)[C@H]2CSSCC/C=C/[C@H](CC(=O)N[C@H](C(C)C)C(=O)N2)OC(=O)[C@H](C(C)C)NC1=O` [romidepsin, (E)-(1S,4S,10S,21R)-7-[(Z)-Ethylidene]-4,21-diisopropyl-2-oxa-12,13-dithi a-5,8,20,23-tetraazabicyclo[8,7,6]-tricos-16-ene-3,6,9,22-pentanone], in data set [2] (61 patients), the “median time to peak induction of HbF” value is on record as 99 days and the “range of time to peak induction of HbF” value lay within 27 to 295 days. In data set [2] (CR/PR), the “HbF fold change, range” value was 1.69–23.00. Moreover, in data set [2] (Final vs baseline, n=49), the “patients with fold increase 2 ≤ x < 4 in hemoglobin F, number (%)” value was 9 (18%); the “patients with fold increase x < 2 in hemoglobin F, number (%)” value is 20 (41%); the “patients with fold increase x ≥ 4 in hemoglobin F, number (%)” value is 20 (41 %). In data set [2] (Peak vs baseline, n=52), the “patients with fold increase 2 ≤ x < 4 in hemoglobin F, number (%)” value is on record as 7 (13%); the “patients with fold increase x < 2 in hemoglobin F, number (%)” value was 14 (27%); the “patients with fold increase x ≥ 4 in hemoglobin F, number (%)” value was 31 (60%). Besides, the “HbF fold change, range” value in data set [2] (SD/PD) is 0.95–11.50. Moreover, the “patients with > 4-fold rise in HbF levels” value in data set [2] (peak vs baseline) is on record as 60%. Further, in data set [2] (peak vs baseline, zero baselines reassigned 0.2%), the “patients with two-fold or greater induction of fetal hemoglobin” value is 73%. Moreover, in data set [3], the “patients with at least a 2-fold increase in global histone acetylation” value was determined as 73%; the “patients with fold increase x < 2 in histone acetylation, number (%)” value was 21 (57%) and 11 (61%). For the same compound, in data set [4], the “median fold increase in ABCB1 mRNA expression” value was 2.74 and 1.78; the “patients having ABCB1 levels 2-fold or higher than baseline” value was 56% and 37%; the “samples again showing less than 2-fold ABCB1 increase at 24 h” value is 71%. Besides, in data set [5], the “fold increase in ABCB1 in a biopsy sample, one patient” value is “greater than 30”; the “fold increase in ABCB1 in biopsy samples, all other values” is “below 8”; the “increase in median ABCB1 level on-study to off study” value was 50%; the “pre/post sample sets with greater than 50% increase in ABCB1 expression level” value is given as “Fourteen”. In addition, in data set [5], the “pre/post samples with two-fold or greater increase in ABCB1 level” value is listed as “eight”.
